Assay results reported in patent US20100048462A1, “TRUNCATED PTH PEPTIDES WITH A CYCLIC CONFORMATION” (Zealand Pharma A/S, priority 2006, published 2010).
Square brackets hold non-standard residues; d marks the D form. Peptide text beside a SMILES is read from it. hArg = N=C(N)NCCCC[C@H](N)C(=O)O; Ac5c = NC1(C(=O)O)CCCC1; Aib = CC(C)(N)C(=O)O

How the values were obtained:
PTH receptor 1 = target: T1, PTH receptor 1 (Mus musculus, UniProt P41593); assay: MC3T3-E1 cAMP efficacy assay; type: cell-based, murine; settings: MC3T3-E1 cells; for EC50: cAMP, 100 μM IBMX, 37° C.; for Emax ± SEM [pmol/well]: maximally inducible cAMP
T1 construct: host or cells: MC3T3-E1 subclone 4
T1 sequence (P41593 27-591): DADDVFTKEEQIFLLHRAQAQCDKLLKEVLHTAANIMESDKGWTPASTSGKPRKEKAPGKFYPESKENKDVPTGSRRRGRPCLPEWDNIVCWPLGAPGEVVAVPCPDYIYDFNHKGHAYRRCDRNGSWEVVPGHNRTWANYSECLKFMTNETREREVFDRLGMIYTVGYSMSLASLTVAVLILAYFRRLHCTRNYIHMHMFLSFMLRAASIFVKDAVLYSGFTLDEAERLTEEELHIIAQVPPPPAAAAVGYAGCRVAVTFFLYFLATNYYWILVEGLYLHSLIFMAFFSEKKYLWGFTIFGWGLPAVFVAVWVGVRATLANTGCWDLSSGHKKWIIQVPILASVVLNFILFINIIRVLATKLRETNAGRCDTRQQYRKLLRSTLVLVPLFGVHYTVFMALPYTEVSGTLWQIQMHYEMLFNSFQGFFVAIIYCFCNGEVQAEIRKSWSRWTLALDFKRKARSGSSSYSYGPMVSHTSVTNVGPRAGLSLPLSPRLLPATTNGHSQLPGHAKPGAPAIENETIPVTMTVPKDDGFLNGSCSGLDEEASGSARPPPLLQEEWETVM
Method: MC3T3-E1 cells were seeded at 10,000 cells/well in 96-microtiter plates and grown overnight before the efficacy assays. On the day of analysis the growth medium was carefully removed by suction. Cells were washed once with 200 μl TB/0.1% […]. The buffer was replaced with 100 μl reaction mixture (±test peptide, +100 μM IBMX) and incubated at 37° C. for 13 min. The reaction was stopped by addition of 25 μl of ice-cold 0.5 M HCl. Cells were in the following incubated on ice for 60 min. 75 μl acetate-buffer were added to each well in a 96-well cAMP FlashPlate. […] FlashPlates were incubated overnight at 4° C., emptied by suction and counted in a TopCounter.
Determinations were performed in triplicates at all doses. Standards were included as single determinations, duplicates or triplicates in each experiment, preferentially on each plate.
Efficacy was evaluated in the concentration range from […].
Concentration-dependent cAMP responses were imported into GraphPad Prism vers. 4, transformed and plotted. Curves were fitted with a function for sigmoidal dose response curve non-linear fit Y=Bottom+(Top-Bottom)/(1+10̂((LogEC50-X))) where X is the logarithm of concentration and Y is the response. Y starts at Bottom and goes to Top with a sigmoid shape. pEC50 and the maximally inducible concentration of cAMP were evaluated. Overall statistical differences were analyzed using one-way ANOVA. Post-hoc comparisons were made by the use of Fisher's Least Significance Test. Results were considered significant, when p was lower than 0.05.

Saos-2 PTH1R = target: T2, Saos-2 PTH1R (Homo sapiens, UniProt Q03431); assay: cAMP-efficacy assay in Saos-2 cells; type: cell-based; settings: for EC50: cAMP, 100 μM IBMX, 37° C. 15 min, suffix of label = salt tested; for Emax ± SEM: relative effect to the control (SEQ ID NO: 32)
T2 construct: endogenous in cells; host or cells: Saos-2
T2 sequence (Q03431 27-593): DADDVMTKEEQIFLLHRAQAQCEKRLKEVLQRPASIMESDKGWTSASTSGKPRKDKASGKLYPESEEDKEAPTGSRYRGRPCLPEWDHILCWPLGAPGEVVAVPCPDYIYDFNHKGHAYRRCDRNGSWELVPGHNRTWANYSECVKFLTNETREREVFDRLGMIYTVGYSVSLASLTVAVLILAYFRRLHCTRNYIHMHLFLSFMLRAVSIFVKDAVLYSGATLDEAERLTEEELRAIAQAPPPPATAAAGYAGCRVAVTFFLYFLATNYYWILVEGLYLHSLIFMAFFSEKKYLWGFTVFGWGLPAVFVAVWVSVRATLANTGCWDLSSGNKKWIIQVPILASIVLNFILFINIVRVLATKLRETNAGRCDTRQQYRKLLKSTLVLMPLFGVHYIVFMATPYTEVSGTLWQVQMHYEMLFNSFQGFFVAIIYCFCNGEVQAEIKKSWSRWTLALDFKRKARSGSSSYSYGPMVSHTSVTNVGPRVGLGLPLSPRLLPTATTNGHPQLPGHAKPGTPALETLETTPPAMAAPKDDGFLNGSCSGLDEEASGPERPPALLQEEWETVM
Outline: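 cAMP accumulation was assayed by FlashPlate after 15 min peptide stimulation at 37 °C of Saos-2 cells in Tyrode's buffer containing 100 μM IBMX and 0.1% BSA, with the reaction stopped by ice-cold HCl. Variable-slope logistic fitting gave EC50/pEC50, Hill coefficient and Emax, with single or triplicate points.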

CYP2D6 = CYP2D6 (Homo sapiens, UniProt P10635); assay: CYP2D6 inhibition in pooled human liver microsomes; type: in vitro ADME; set-up: Pooled human liver microsomes (HLM, final concentration 0.05 mg protein/mL); tissue BD Biosciences 452161; host or cells: pooled human liver microsomes; settings: 10 μM compound, dextrorphan formation rate
Chain of CYP2D6 (P10635 whole entry): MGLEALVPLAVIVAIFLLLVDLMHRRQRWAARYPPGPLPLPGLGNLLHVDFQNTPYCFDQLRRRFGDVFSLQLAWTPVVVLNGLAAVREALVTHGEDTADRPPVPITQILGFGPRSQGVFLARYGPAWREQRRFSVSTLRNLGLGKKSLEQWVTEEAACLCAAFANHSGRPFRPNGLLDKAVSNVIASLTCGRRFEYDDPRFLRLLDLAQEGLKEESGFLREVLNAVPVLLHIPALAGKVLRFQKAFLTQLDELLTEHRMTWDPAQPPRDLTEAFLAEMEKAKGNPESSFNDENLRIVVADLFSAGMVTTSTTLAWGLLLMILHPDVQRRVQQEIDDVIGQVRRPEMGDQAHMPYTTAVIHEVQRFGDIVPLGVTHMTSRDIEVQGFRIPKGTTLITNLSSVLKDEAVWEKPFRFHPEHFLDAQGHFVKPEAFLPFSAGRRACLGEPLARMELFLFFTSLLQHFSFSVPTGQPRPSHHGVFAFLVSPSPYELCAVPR
Outline: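 Pooled HLM (0.05 mg/mL) in 0.1 M KPi pH 7.4 with 5 μM dextromethorphan and 10 μM test compound, preincubated 5 min at 37 °C, then started with NADPH-regenerating system for 5 min. Dextrorphan quantified by LC/MS/MS; activity expressed as % of vehicle; <70% considered significant.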

ovariectomized rats = settings: cited from earlier work; for bone-anabolic activity: ovariectomized rats
PTH1R = target: T3, PTH1R (Homo sapiens, UniProt Q03431); settings: cited from earlier work
T3 sequence (Q03431 27-593): T2 sequence (Q03431 27-593)

| Compound | EC50 (PTH receptor 1) [nM] | Emax ± SEM [pmol/well] (PTH receptor 1) | EC50 (Saos-2 PTH1R) [nM] | Emax ± SEM (Saos-2 PTH1R) | bone-anabolic activity (ovariectomized rats) | other results |
| --- | --- | --- | --- | --- | --- | --- |
| CC[C@H](C)[C@H](NC(=O)[C@H](CCC(=O)O)NC(=O)C(C)(C)NC(=O)[C@@H](NC(=O)C1(N)CCCC1)C(C)C)C(=O)N[C@@H](CCC(N)=O)C(=O)N[C@@H](CC(C)C)C(=O)N[C@@H](CCSC)C(=O)N[C@@H](Cc1c[nH]cn1)C(=O)N[C@@H](CCC(N)=O)C(=O)N[C@@H](CCCCNC(=N)N)C(=O)N[C@@H](C)C(=O)N[C@@H](CCCCN)C(=O)N[C@@H](Cc1c[nH]c2ccccc12)C(N)=O [SEQ ID NO: 31, H-Ac5c-Val-Aib-Glu-Ile-Gln-Leu-Met-His-Gln-Har-Ala-Lys-Trp-NH2, reference compound] (H-[Ac5c]V[Aib]EIQLMHQ[hArg]AKW-NH2) | 3.98 | 4.5 ± 1.0 | 21.9 | 1.07 ± 0.04 |  | CYP2D6 activity (% of vehicle) (CYP2D6): 22 % of vehicle |
| CC[C@H](C)[C@H](NC(=O)[C@H](CCC(=O)O)NC(=O)C(C)(C)NC(=O)[C@@H](NC(=O)C1(N)CCCC1)C(C)C)C(=O)N[C@@H](CCC(N)=O)C(=O)N[C@@H](CC(C)C)C(=O)N[C@@H](CCSC)C(=O)N[C@@H](Cc1c[nH]cn1)C(=O)N[C@@H](CCC(N)=O)C(=O)N[C@@H](CCCCNC(=N)N)C(=O)N[C@@H](C)C(=O)N[C@@H](CCCCN)C(=O)N[C@@H](Cc1c[nH]c2ccccc12)C(=O)N[C@@H](CC(C)C)C(=O)N[C@@H](CC(N)=O)C(=O)N[C@@H](CC(=O)O)C(N)=O [SEQ ID NO: 42, H-Ac5c-Val-Aib-Glu-Ile-Gln-Leu-Met-His-Gln-Har-Ala-Lys-Trp-Leu-Asn-Asp-NH2] (H-[Ac5c]V[Aib]EIQLMHQ[hArg]AKWLND-NH2) | 6.31 | 5.7 ± 1.0 | 20.9 | 1.03 ± 0.07 |  | CYP2D6 activity (% of vehicle) (CYP2D6; listed as 42): 29 % of vehicle; CYP2D6 activity (% of vehicle) (CYP2D6; listed as SEQ ID NO:42): 29 % of vehicle |
| PTH(1-29): truncated PTH fragment from the literature (Murrills et al. 2004) (SVSEIQLMHNLGKHLNSMERVEWLRKKLQ; Parathyroid hormone; UniProt P01270 32-60, looked up, fragment) |  |  |  |  |  | bone-anabolic activity, fold less potent than PTH(1-34) (ovariectomized rats; ovariectomized rat model): approximately 20 fold |
| [Aib^1.3, Phe^7, Nle^8, Arg^11, Ala^12, Trp^14]PTH(1-14) |  |  |  |  | did not exhibit any bone-anabolic activity | activation of the PTH1R in vitro (PTH1R): activated the PTH1R in vitro |
| [Ala^1.3, Nle^8, Gln^10, Har^11, Trp^14, Arg^19, Tyr^21]rPTH(1-21) [MPTH(1-21)] |  |  |  |  | inactive |  |
